Measurements: patent US9278086B2, “Combination therapy and uses thereof for treatment and prevention of parasitic infection and disease” (The Royal Institution for the Advancement of …, priority 2010, dated 2016)

Assays:
Type in all cases: in vivo
[1] = tested on: Plasmodium berghei ANKA; experiment: Plasmodium berghei ANKA infection (cerebral malaria model) in C57BL/6J mice, parasitemia and survival; conditions: Cysteamine alone
Experimental: FIGS. 8A and 8B show the results of two independent experiments on the effect of cysteamine and artesunate combinations on the progression of Plasmodium berghei ANKA infection (parasitemia). Groups of 5 adult 18-20 g C57BL/6J males and females were infected intravenously with 1×10^6 erythrocytes parasitized with P. berghei ANKA at time “0”. Two hours later, mice were injected i.p with either Artemisinin alone or with Artemisinin/Cysteamine combinations (at the indicated concentrations in mg/kg body weight). In the case of the latter, Artemisinin was injected first in one quadrant, and cysteamine was injected second, 10-15 minutes later in another quadrant. The drug treatment was further repeated at days 1, 2 and 3 post-infection to emulate the standard 4-day test used in anti-malarial drug discovery. Starting at day 5, blood was collected, thin blood smears were prepared, and parasitemia was determined (400 erythrocytes counted, expressed as percentage parasitized erythrocytes). Error bars show standard deviations on the mean; and
FIGS. 9A and 9B show the results of two independent experiments on the effect of cysteamine and artesunate combinations on the survival of Plasmodium berghei ANKA-infected mice. Infection and drug administration were performed as described above for FIGS. 8A and 8B. Animals were monitored for the appearance and severity of cerebral symptoms (CM phase, shown as rectangle in graph), and moribund animals were euthanized, and time of death was recorded.
Intravenous infection with Plasmodium berghei ANKA is an accepted mouse model of cerebral malaria (CM) (Hunt, N. H. et al. 2006, Int. J. Parasitol. 36: 569-582). The infection causes the following pathology. First, there is appearance of blood parasitemia, starting at days 3 or 4, which can go up to 10% by day 7-8. Starting at day 5-6, there is emergence of cerebral symptoms caused by permeability of the blood brain barrier, concomitant to trapping of parasitized red cells in the microvasculature and acute pathological host inflammatory response in situ. This cerebral phase quickly progresses from tremors, to paralysis, to coma, and is uniformly lethal in mice by days 8-10. In this model, progress of infection and possibly drug effects may be monitored by a) appearance and intensity of blood parasitemia (between days 5-8), b) appearance of cerebral symptoms, and c) lethality.

[2] = tested on: Plasmodium chabaudi; experiment: 4-day test, P. chabaudi (10^7 pRBC i.v.) in pantetheinase-deficient A/J mice, blood parasitemia days 4 and 5; conditions: A/J mice
Experimental: (§1) A/J and C57BL/6 (B6) mice were purchased from the Jackson Laboratories (Bar Harbor, Me.) and were housed at McGill University according to the guidelines of the Canadian Council on Animal Care. An LDH virus-free isolate of P. chabaudi AS was maintained by weekly passage in A/J mice. Mice were infected intravenously into the tail vein (i.v.) with 10^6 or 10^7 pRBC suspended in pyrogen-free saline. Following infection, the percentage of pRBC was determined daily on thin blood smears stained with Dif-Quik™ (Dade Behring, Newark, Del.), as described (Fortin A, et al. (2001) Proc Natl Acad Sci USA 98: 10793-10798).
(§2) Cysteamine hydrochloride (Sigma, Burlington ON) was prepared in PBS. Chloroquine hydrochloride, artesunate and dihydroartemisinin were provided by Dafra Pharmaceuticals; chloroquine was prepared in PBS, artesunate and DHA were prepared in 5% sodium bicarbonate and diluted in water to appropriate concentrations. All solutions were prepared fresh daily, filter sterilized and injections were performed intra-peritoneally (i.p) or subcutaneously (s.c.) for 4 days or according to treatment regimen. Mice were weighed prior to treatment to determine appropriate doses and injection volumes ranged from 100-400 μL per mouse. In the case of animals treated with two drugs, artemisinin derivatives were administered first (due to the short half life of cysteamine), followed by cysteamine 5-10 minutes later on alternate sides. Untreated control animals were injected with PBS alone.
(§3) Groups with normally distributed data points were compared using parametric unpaired t-tests, while groups with non-Gaussian distributions were compared using non-parametric Mann-Whitney tests. Survival differences were analyzed using the Log-Rank test. […] Standard error of percent inhibition was calculated from individual mice compared to the mean parasitemia level of the control group.
(§4) The effect of Cys on the potency and efficacy of the anti-malarial artemisinin derivatives was tested. […] Synergy (Tallarida R J (2001) J Pharmacol Exp Ther 298: 865-872) is defined as a total anti-malarial activity (reduction in blood parasitemia compared to untreated controls in a standard 4-day test) of the two compounds administered together being greater than the sum of the independent activities of the two compounds given alone. We tested combinations of Cys and either artesunate (ART) or dihydroartemisinin (DHA), the bioactive form of artemisinin. Pantetheinase-deficient mice were infected with P. chabaudi (10^7 pRBC, i.v.) and treated with Cys (170 mg/kg) and/or sub-optimal doses of ART (0.2 or 0.5 mg/kg) (FIG. 3A) or DHA (0.15 or 0.3 mg/kg) (FIG. 3B) from day 0-3 and parasitemia was monitored on days 4 and 5. […] Potentiation of the anti-malarial activity of ART (0.5 mg/kg) by Cys was also clearly evident in these C57BL/6 mice at both days 4 and 5 post-infection, with combined treatment causing a 65-71% reduction in parasitemia compared to PBS controls, greater than either compound tested alone (13-29%) (TABLE 1).
It was subsequently examined whether Cys potentiation of ART was dose dependent. Initially, Cys doses of 60, 100, 140 and 180 mg/kg were tested with a sub-optimal ART dose of 0.2 mg/kg. The drugs were administered from day 0-3 post infection, parasitemia was counted at day 4 and day 5 and the percent inhibition was calculated compared to PBS-treated controls (FIG. 4A). At 0.2 mg/kg, ART alone inhibits parasitemia by ˜20% (day 4) and 40% (day 5) while inhibition by Cys alone was partially dose dependent (varying between 10% and 25%). […] It was also assessed whether Cys could potentiate low doses of artesunate which, given alone, have no significant effect on parasitemia. In this experiment, Cys (170 mg/kg) was administered in combination, or not, with increasing doses of ART (0.05, 0.1, 0.2, 0.4 mg/kg) in the same 4-day experimental protocol.

[3] = tested on: Plasmodium chabaudi; experiment: 4-day test, P. chabaudi (10^7 pRBC i.v.) in pantetheinase-sufficient C57BL/6 mice, blood parasitemia days 4 and 5; conditions: cysteamine 170 mg/kg i.p. alone, days 0-3
Experimental: as §1, §2, §3, §4

[4] = tested on: Plasmodium chabaudi; experiment: Progression of P. chabaudi infection (10^6 pRBC i.v.) in pantetheinase-sufficient B6 mice; conditions: Cys 60 mg/kg added to Art
Experimental: as §1, §2
To investigate whether the effects on parasite burden over the course of infection would also be observed with a pantetheinase-sufficient mouse strain, a similar experiment was performed using female B6 mice. Groups of mice were infected with 10^6 P. chabaudi pRBC i.v. and treated with PBS, 1 mg/kg or 30 mg/kg of Art, or 1 mg/kg or 30 mg/kg of Art plus 60 mg/kg of Cys for 4 days. […] As in A/J mice, the effect of Cys addition to 1 mg/kg of Art has a clear effect on early parasite replication at day 6 (FIG. 6B). […] B6 mice were able to completely clear parasite burdens and survive the infection, even in the control PBS-treated group.

[5] = cysteamine 170 mg/kg i.p. alone, days 0-3

With `NCCS` [Cysteamine] the “effect on survival of P. berghei-infected animals” value [1] was “minor positive effect on survival”, the “Inhibition of parasitemia Day 4” value [2, 5] was 28 % PBS control and the “Inhibition of parasitemia Day 5” value [2, 5] was 23 % PBS control. The “Cys doses as low as which show potentiation of the ART effect” value ([2]; lower Cys dose range (20, 40 and 60 mg/kg) with ART (FIG. 4B)) was 20 to 40 mg/kg, the “Inhibition of parasitemia Day 4” value [3] was 13 % PBS control and the “Inhibition of parasitemia Day 5” value [3] was 25 % PBS control. For the same compound, the “recrudescent parasitemia around day 14” value [4] was “eliminated the appearance of recrudescent parasitemia”.
